Data published in patent US6737383B1, “Herbicidal oxadiazolidines” (priority 1999, dated 2004).

Assays:
duck salad = test: Test B flood test duck salad; type: in vivo, Heteranthera limosa
Summary of the method: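 Read-out is a visual response score from 0 (no effect) to 10 (complete control), assigned by comparison with untreated controls. Treatment was applied at the 2-leaf stage, and plants stayed in the greenhouse for twelve to sixteen days before scoring.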

cocklebur = test: Test B pre/postemergence cocklebur; type: in vivo, Xanthium strumarium
Summary of the method: (§1)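 Herbicidal effect was estimated by eye on a ten-point control scale after plants spent twelve to sixteen days in a greenhouse following soil or foliar treatment. Foliar sprays targeted plants at one to four leaves; all doses were formulated in a non-phytotoxic solvent with surfactant.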

giant foxtail = test: Test B pre/postemergence giant foxtail; type: in vivo, Setaria faberii
Summary of the method: as §1

pigweed = test: Test B pre/postemergence pigweed; type: in vivo, Amaranthus retroflexus
Summary of the method: as §1

wheat = test: Test B pre/postemergence wheat; type: in vivo, Triticum aestivum
Summary of the method: as §1

velvetleaf = test: Test B pre/postemergence velvetleaf; type: in vivo, Abutilon theophrasti
Summary of the method: as §1

purple nutsedge = test: Test B pre/postemergence purple nutsedge; type: in vivo, Cyperus rotundus
Summary of the method: as §1

sugar beet = test: Test B pre/postemergence sugar beet; type: in vivo, Beta vulgaris
Summary of the method: as §1

corn = test: Test B pre/postemergence corn; type: in vivo, Zea mays
Summary of the method: as §1

bedstraw = test: Test B pre/postemergence bedstraw; type: in vivo, Galium aparine
Summary of the method: as §1

soybean = test: Test B pre/postemergence soybean; type: in vivo, Glycine max
Summary of the method: as §1

rape = test: Test B pre/postemergence rape; type: in vivo, Brassica napus
Summary of the method: as §1

surinam grass = test: Test B pre/postemergence surinam grass; type: in vivo, Brachiaria decumbens
Summary of the method: as §1

crabgrass = test: Test B pre/postemergence crabgrass; type: in vivo, Digitaria sanguinalis
Summary of the method: as §1

morningglory = test: Test B pre/postemergence morningglory; type: in vivo, Ipomoea hederacea
Summary of the method: as §1

[1] = Rate 125 g/ha, Pre-emergence, flood test species, scale 0 to 10 where 0 is no effect and 10 is complete control
[2] = Rate 250 g/ha, Pre-emergence, flood-test species, scale 0 to 10, 0 is no effect, 10 is complete control
[3] = Rate 500 g/ha, Pre-emergence, flood test species, scale 0 to 10 (0 no effect, 10 complete control)
[4] = Preemergence, Rate 500 g/ha, scale of 0 to 10 where 0 is no effect and 10 is complete control
[5] = Rate 62 g/ha, Postemergence, scale 0 to 10 (0 no effect, 10 complete control)
[6] = Rate 125 g/ha, Postemergence, scale of 0 to 10 where 0 is no effect and 10 is complete control
[7] = Rate 250 g/ha, Postemergence, scale of 0 to 10 where 0 is no effect and 10 is complete control
[8] = Rate 500 g/ha, Postemergence, scale 0 to 10, 0 no effect, 10 complete control
[9] = Preemergence, Rate 62 g/ha, scale of 0 to 10 where 0 is no effect and 10 is complete control
[10] = Preemergence, Rate 250 g/ha, scale of 0 to 10 where 0 is no effect and 10 is complete control

COC(Cn1c(=O)on(C(=O)N(c2ccc(F)cc2)C(C)C)c1=O)OC [Compound 317]
Ducksalad plant response rating (duck salad; Pre-emergence, Rate 1000 g/ha, scale 0 to 10 (0 no effect, 10 complete control)): 0
Ducksalad plant response rating (duck salad; [1]): 0
Ducksalad plant response rating (duck salad; [2]): 0
Ducksalad plant response rating (duck salad; [3]): 0
Cocklebur plant response rating (0 to 10 scale) (cocklebur; Preemergence, Rate 125 g/ha): 0
Cocklebur plant response rating (cocklebur; [4]): 0
Cocklebur plant response rating (cocklebur; [5]): 0
Cocklebur plant response rating (cocklebur; [6]): 0
Plant response rating, Cocklebur (cocklebur; [7]): 0
Cocklebur plant response rating (cocklebur; [8]): 1
Giant foxtail plant response rating (giant foxtail; [9]): 9
Giant foxtail plant response rating (0 to 10 scale) (giant foxtail; Preemergence, Rate 125 g/ha): 10
Giant foxtail plant response rating (giant foxtail; [10]): 10
Giant foxtail plant response rating (giant foxtail; [4]): 10
Giant foxtail plant response rating (giant foxtail; [5]): 5
Giant foxtail plant response rating (giant foxtail; [6]): 5
Plant response rating, Giant foxtail (giant foxtail; [7]): 8
Redroot pigweed plant response rating (pigweed; [9]): 2
Redroot pigweed plant response rating (0 to 10 scale) (pigweed; Preemergence, Rate 125 g/ha): 7
Redroot pigweed plant response rating (pigweed; [10]): 7
Redroot pigweed plant response rating (pigweed; [4]): 10
Redroot pigweed plant response rating (pigweed; [5]): 0
Redroot pigweed plant response rating (pigweed; [6]): 0
Plant response rating, Redroot pigweed (pigweed; [7]): 3
Wheat plant response rating (wheat; [9]): 1
Wheat plant response rating (0 to 10 scale) (wheat; Preemergence, Rate 125 g/ha): 2
Wheat plant response rating (wheat; [10]): 7
Wheat plant response rating (wheat; [4]): 8
Wheat plant response rating (wheat; [5]): 0
Wheat plant response rating (wheat; [6]): 1
Plant response rating, Wheat (wheat; [7]): 5
Velvetleaf plant response rating (velvetleaf; [9]): 1
Velvetleaf plant response rating (0 to 10 scale) (velvetleaf; Preemergence, Rate 125 g/ha): 6
Velvetleaf plant response rating (velvetleaf; [10]): 6
Velvetleaf plant response rating (velvetleaf; [4]): 8
Velvetleaf plant response rating (velvetleaf; [5]): 0
Velvetleaf plant response rating (velvetleaf; [6]): 0
Plant response rating, Velvetleaf (velvetleaf; [7]): 0
Nutsedge plant response rating (purple nutsedge; [9]): 0
Nutsedge plant response rating (purple nutsedge; [10]): 0
Nutsedge plant response rating (purple nutsedge; [4]): 0
Nutsedge plant response rating (purple nutsedge; [5]): 0
Nutsedge plant response rating (purple nutsedge; [6]): 0
Plant response rating, Nutsedge (purple nutsedge; [7]): 0
Sugarbeets plant response rating (sugar beet; [9]): 1
Sugarbeets plant response rating (0 to 10 scale) (sugar beet; Preemergence, Rate 125 g/ha): 4
Sugarbeets plant response rating (sugar beet; [10]): 7
Sugarbeets plant response rating (sugar beet; [4]): 8
Sugarbeets plant response rating (sugar beet; [5]): 0
Sugarbeets plant response rating (sugar beet; [6]): 0
Plant response rating, Sugarbeets (sugar beet; [7]): 1
Corn plant response rating (corn; [9]): 0
Corn plant response rating (0 to 10 scale) (corn; Preemergence, Rate 125 g/ha): 2
Corn plant response rating (corn; [4]): 5
Corn plant response rating (corn; [5]): 0
Corn plant response rating (corn; [6]): 0
Plant response rating, Corn (corn; [7]): 2
Corn plant response rating (corn; [8]): 3
Bedstraw plant response rating (bedstraw; [9]): 0
Bedstraw plant response rating (bedstraw; [5]): 2
Bedstraw plant response rating (bedstraw; [6]): 6
Plant response rating, Bedstraw (bedstraw; [7]): 8
Soybean plant response rating (soybean; [9]): 0
Soybean plant response rating (0 to 10 scale) (soybean; Preemergence, Rate 125 g/ha): 0
Soybean plant response rating (soybean; [10]): 0
Soybean plant response rating (soybean; [4]): 4
Soybean plant response rating (soybean; [5]): 3
Soybean plant response rating (soybean; [6]): 4
Plant response rating, Soybean (soybean; [7]): 6
Rape plant response rating (rape; [9]): 0
Rape plant response rating (0 to 10 scale) (rape; Preemergence, Rate 125 g/ha): 2
Rape plant response rating (rape; [10]): 8
Rape plant response rating (rape; [4]): 10
Rape plant response rating (rape; [5]): 0
Rape plant response rating (rape; [6]): 0
Plant response rating, Rape (rape; [7]): 1
B. signalgrass plant response rating (surinam grass; [9]): 5
B. signalgrass plant response rating (0 to 10 scale, 0 is no effect, 10 is complete control) (surinam grass; Preemergence, Rate 125 g/ha): 6
B. signalgrass plant response rating (surinam grass; [10]): 7
B. signalgrass plant response rating (surinam grass; [4]): 8
B. signalgrass plant response rating (surinam grass; [5]): 0
B. signalgrass plant response rating (surinam grass; [6]): 1
Plant response rating, B. signalgrass (surinam grass; [7]): 7
B. signalgrass plant response rating (surinam grass; [8]): 8
Crabgrass plant response rating (crabgrass; [9]): 6
Crabgrass plant response rating (0 to 10 scale) (crabgrass; Preemergence, Rate 125 g/ha): 7
Crabgrass plant response rating (crabgrass; [10]): 8
Crabgrass plant response rating (crabgrass; [4]): 8
Crabgrass plant response rating (crabgrass; [5]): 2
Crabgrass plant response rating (crabgrass; [6]): 5
Plant response rating, Crabgrass (crabgrass; [7]): 8
Morningglory plant response rating (morningglory; [9]): 0
Morningglory plant response rating (0 to 10 scale) (morningglory; Preemergence, Rate 125 g/ha): 0
Morningglory plant response rating (morningglory; [10]): 0
Morningglory plant response rating (morningglory; [4]): 0
Morningglory plant response rating (morningglory; [5]): 1
Morningglory plant response rating (morningglory; [6]): 3
Plant response rating, Morningglory (morningglory; [7]): 3

CC(C)n1c(=O)on(C(=O)N(c2ccc(Cl)cc2Cl)C2CCC2)c1=O [Compound 319]
Ducksalad plant response rating (duck salad; Rate 62 g/ha, headed Pre-emergence (flood test species), scale 0 to 10 (0 no effect, 10 complete control)): 0
Ducksalad plant response rating (duck salad; [1]): 0
Ducksalad plant response rating (duck salad; [2]): 0
Ducksalad plant response rating (duck salad; [3]): 0
Cocklebur plant response rating (cocklebur; [9]): 0
Cocklebur plant response rating (0 to 10 scale) (cocklebur; Preemergence, Rate 125 g/ha): 0
Cocklebur plant response rating (cocklebur; [10]): 0
Cocklebur plant response rating (cocklebur; [4]): 0
Cocklebur plant response rating (cocklebur; [5]): 0
Cocklebur plant response rating (cocklebur; [6]): 0
Plant response rating, Cocklebur (cocklebur; [7]): 0
Cocklebur plant response rating (cocklebur; [8]): 0
Giant foxtail plant response rating (giant foxtail; [9]): 6
Giant foxtail plant response rating (0 to 10 scale) (giant foxtail; Preemergence, Rate 125 g/ha): 7
Giant foxtail plant response rating (giant foxtail; [10]): 9
Giant foxtail plant response rating (giant foxtail; [4]): 9
Giant foxtail plant response rating (giant foxtail; [5]): 0
Giant foxtail plant response rating (giant foxtail; [6]): 0
Plant response rating, Giant foxtail (giant foxtail; [7]): 0
Redroot pigweed plant response rating (pigweed; [9]): 0
Redroot pigweed plant response rating (0 to 10 scale) (pigweed; Preemergence, Rate 125 g/ha): 0
Redroot pigweed plant response rating (pigweed; [10]): 0
Redroot pigweed plant response rating (pigweed; [4]): 0
Redroot pigweed plant response rating (pigweed; [5]): 0
Redroot pigweed plant response rating (pigweed; [6]): 0
Plant response rating, Redroot pigweed (pigweed; [7]): 0
Wheat plant response rating (wheat; [9]): 0
Wheat plant response rating (0 to 10 scale) (wheat; Preemergence, Rate 125 g/ha): 0
Wheat plant response rating (wheat; [10]): 0
Wheat plant response rating (wheat; [4]): 0
Wheat plant response rating (wheat; [5]): 0
Wheat plant response rating (wheat; [6]): 0
Plant response rating, Wheat (wheat; [7]): 0
Velvetleaf plant response rating (velvetleaf; [9]): 0
Velvetleaf plant response rating (0 to 10 scale) (velvetleaf; Preemergence, Rate 125 g/ha): 0
Velvetleaf plant response rating (velvetleaf; [10]): 0
Velvetleaf plant response rating (velvetleaf; [4]): 0
Velvetleaf plant response rating (velvetleaf; [5]): 0
Velvetleaf plant response rating (velvetleaf; [6]): 0
Plant response rating, Velvetleaf (velvetleaf; [7]): 0
Nutsedge plant response rating (purple nutsedge; [9]): 0
Nutsedge plant response rating (0 to 10 scale) (purple nutsedge; Preemergence, Rate 125 g/ha): 0
Nutsedge plant response rating (purple nutsedge; [10]): 0
Nutsedge plant response rating (purple nutsedge; [4]): 0
Nutsedge plant response rating (purple nutsedge; [5]): 0
Nutsedge plant response rating (purple nutsedge; [6]): 0
Plant response rating, Nutsedge (purple nutsedge; [7]): 0
Sugarbeets plant response rating (sugar beet; [9]): 0
Sugarbeets plant response rating (0 to 10 scale) (sugar beet; Preemergence, Rate 125 g/ha): 0
Sugarbeets plant response rating (sugar beet; [10]): 0
Sugarbeets plant response rating (sugar beet; [4]): 0
Sugarbeets plant response rating (sugar beet; [5]): 0
Sugarbeets plant response rating (sugar beet; [6]): 0
Plant response rating, Sugarbeets (sugar beet; [7]): 0
Corn plant response rating (corn; [9]): 0
Corn plant response rating (0 to 10 scale) (corn; Preemergence, Rate 125 g/ha): 0
Corn plant response rating (corn; [10]): 0
Corn plant response rating (corn; [4]): 0
Corn plant response rating (corn; [5]): 0
Corn plant response rating (corn; [6]): 0
Plant response rating, Corn (corn; [7]): 0
Corn plant response rating (corn; [8]): 0
Bedstraw plant response rating (bedstraw; [9]): 0
Bedstraw plant response rating (0 to 10 scale) (bedstraw; Preemergence, Rate 125 g/ha): 0
Bedstraw plant response rating (bedstraw; [10]): 0
Bedstraw plant response rating (bedstraw; [4]): 7
Bedstraw plant response rating (bedstraw; [5]): 0
Bedstraw plant response rating (bedstraw; [6]): 0
Soybean plant response rating (soybean; [9]): 0
Soybean plant response rating (0 to 10 scale) (soybean; Preemergence, Rate 125 g/ha): 0
Soybean plant response rating (soybean; [10]): 0
Soybean plant response rating (soybean; [4]): 0
Soybean plant response rating (soybean; [5]): 0
Soybean plant response rating (soybean; [6]): 1
Plant response rating, Soybean (soybean; [7]): 1
Rape plant response rating (rape; [9]): 0
Rape plant response rating (0 to 10 scale) (rape; Preemergence, Rate 125 g/ha): 0
Rape plant response rating (rape; [10]): 0
Rape plant response rating (rape; [4]): 0
Rape plant response rating (rape; [5]): 0
Rape plant response rating (rape; [6]): 0
Plant response rating, Rape (rape; [7]): 0
B. signalgrass plant response rating (surinam grass; [9]): 0
B. signalgrass plant response rating (0 to 10 scale, 0 is no effect, 10 is complete control) (surinam grass; Preemergence, Rate 125 g/ha): 0
B. signalgrass plant response rating (surinam grass; [10]): 2
B. signalgrass plant response rating (surinam grass; [4]): 3
B. signalgrass plant response rating (surinam grass; [5]): 0
B. signalgrass plant response rating (surinam grass; [6]): 0
Plant response rating, B. signalgrass (surinam grass; [7]): 0
B. signalgrass plant response rating (surinam grass; [8]): 0
Crabgrass plant response rating (crabgrass; [9]): 0
Crabgrass plant response rating (0 to 10 scale) (crabgrass; Preemergence, Rate 125 g/ha): 0
Crabgrass plant response rating (crabgrass; [10]): 2
Crabgrass plant response rating (crabgrass; [4]): 3
Crabgrass plant response rating (crabgrass; [5]): 0
Crabgrass plant response rating (crabgrass; [6]): 0
Plant response rating, Crabgrass (crabgrass; [7]): 0
Morningglory plant response rating (morningglory; [9]): 0
Morningglory plant response rating (0 to 10 scale) (morningglory; Preemergence, Rate 125 g/ha): 0
Morningglory plant response rating (morningglory; [10]): 0
Morningglory plant response rating (morningglory; [4]): 0
Morningglory plant response rating (morningglory; [5]): 2
Morningglory plant response rating (morningglory; [6]): 2
Plant response rating, Morningglory (morningglory; [7]): 4
